Source: patent US7772271B2 (priority 2004, dated 2010)

Structure (SMILES) | melting point
CC(C)CS(=O)(=O)Nc1ccc(-c2c(C#N)c3ccc(OCS(C)(=O)=O)cc3n2C2CCC2)cc1 [Compound 2991] | 221 to 225 °C
CCCS(=O)(=O)Nc1ccc(-c2c(C#N)c3ccc(N4CCOCC4)cc3n2CC2CC2)cc1 [Compound 2890] | 186 to 189 °C
CCn1c(-c2ccc(NC(=O)N(CCOC)CCOC)cc2)c(C#N)c2ccc(OCCOC)cc21 [Compound 1382] | 110 to 114 °C
COCCOc1ccc2c(C#N)c(-c3ccc(NC(=O)O[C@H](C)c4ccc(F)cc4)cc3)n(C(C)C)c2c1 [Compound 2854] | 113 to 116 °C
CCn1c(-c2ccc(NC(=O)N3CCCC3)cc2)c(C#N)c2ccc(OCCOC)cc21 [Compound 1381] | 151 to 154 °C
CC(C)NS(=O)(=O)Nc1ccc(-c2c(C#N)c3ccc(Oc4nccnc4Cl)cc3n2C2CCC2)cc1 [Compound 2946] | 144 to 146 °C
N#Cc1c(-c2ccc(NC(=O)Nc3n[nH]c(C4CC4)n3)cc2)n(C2CCC2)c2cc(Oc3ncccn3)ccc12 [Compound 3087] | 275 °C (dec.)
CC(C)OC(=O)Nc1ccc(-c2c(C#N)c3ccc(N4CCOCC4)cc3n2C(C)C)cc1 [Compound 2934] | 192 to 195 °C
C[C@@H](OC(=O)Nc1ccc(-c2c(C#N)c3ccc(-c4ncccc4C(F)(F)F)cc3n2C2CCC2)cc1)C1CC1 [Compound 2997] | 90 to 98 °C
CCOc1ccc2c(C#N)c(-c3ccc(NC(=O)NCCc4ccccn4)cc3)n(C3CCC3)c2c1 [Compound 1392] | 193 to 197 °C
CC(C)Nc1ccc(-c2c(C#N)c3ccc(Oc4ncccc4F)cc3n2C2CCC2)cc1 [Compound 3004] | 188 to 190 °C
COCCOc1ccc2c(C#N)c(-c3ccc(C(=O)NC4CC4)cc3)n(C3CCC3)c2c1 [Compound 2760] | 228 to 230 °C
C[C@@H](OC(=O)Nc1ccc(-c2c(C#N)c3ccc(-c4ccc(Cl)cn4)cc3n2C2CCC2)cc1)C1CC1 [Compound 3001] | 111 to 122 °C
CC(C)S(=O)(=O)Nc1ccc(-c2c(C#N)c3ccc(N4CCOCC4)cc3n2C2CCC2)cc1 [Compound 2801] | 220 °C
CCCn1c(-c2ccc(NC(=O)NCc3ccco3)cc2)c(C#N)c2ccc(OC)cc21 [Compound 1388] | 161 to 164 °C
CC(OC(=O)Nc1ccc(-c2c(C#N)c3ccc(Oc4ncccn4)cc3n2C2CCC2)cc1)C(F)(F)F (stereo not shown) [Compound 2707] | 211 to 213 °C
CC(OC(=O)Nc1ccc(-c2c(C#N)c3ccc(OC4CCOCC4)cc3n2C2CCC2)cc1)C1CC1 (stereo not shown) [Compound 2615] | 118 to 120 °C
Cc1nnc(SCCOc2ccc3c(C#N)c(-c4ccc(NC(=O)OC(C)C)cc4)n(C4CCC4)c3c2)s1 [Compound 2699] | 150 to 151 °C
Cc1ccnc(Oc2ccc3c(C#N)c(-c4ccc(NC(C)C)cc4)n(C4CCC4)c3c2)n1 [Compound 3006] | 173 to 175 °C
COc1ccnc(Oc2ccc3c(C#N)c(-c4ccc(NC(=O)O[C@H](C)C5CC5)cc4)n(C4CCC4)c3c2)n1 [Compound 2736] | 161 to 164 °C

Structure (SMILES) | melting point
C[C@H](NC(=O)Nc1ccc(-c2c(C#N)c3ccc(Oc4ncccn4)cc3n2C2CCC2)cc1)c1ccc(F)cc1 [Compound 2820] | 152 °C (dec.)
CC(C)C(C)OC(=O)Nc1ccc(-c2c(C#N)c3ccc(OC4CCOC4)cc3n2C2CC2)cc1 (stereo not shown) [Compound 1446] | 207 to 208 °C
CCSc1ccc2c(C#N)c(-c3ccc(NC(=O)OC(C)C)cc3)n(C3CCC3)c2c1 [Compound 2713] | 150 to 152 °C
C[C@@H](OC(=O)Nc1ccc(-c2c(C#N)c3ccc(OCCCS(C)(=O)=O)cc3n2C2CCC2)cc1)C(F)(F)F [Compound 2958] | 206 to 208 °C
N#Cc1c(-c2ccc(NC(=O)NC3CCC3)cc2)n(CC2CC2)c2cc(N3CCOCC3)ccc12 [Compound 2876] | 170 to 230 °C
CC(OC(=O)Nc1ccc(-c2c(C#N)c3ccc(OC4COCOC4)cc3n2C2CCC2)cc1)C(C)(C)C (stereo not shown) [Compound 2861] | 221 to 232 °C (dec.)
CCOc1ccc2c(C#N)c(-c3ccc(NC(=O)NCc4ccco4)cc3)n(C3CCC3)c2c1 [Compound 1396] | 192 to 198 °C
CCCNC(=O)Nc1ccc(-c2c(C#N)c3ccc(OCc4csc(C)n4)cc3n2CC)cc1 [Compound 1415] | 220 to 222 °C
COCCN(C)C(=O)c1ccc2c(C#N)c(-c3ccc(NC(=O)OC(C)C)cc3)n(C3CCC3)c2c1 [Compound 2659] | 102 to 105 °C
N#Cc1c(-c2ccc(N3CCCS3(=O)=O)cc2)n(C2CC2)c2cc(N3CCOCC3)ccc12 [Compound 2927] | 260 to 265 °C
CC(C)NC(=O)Nc1ccc(-c2c(C#N)c3ccc(OCCS(C)(=O)=O)cc3n2C2CCC2)cc1 [Compound 2873] | 170 to 180 °C
CCOc1ccc2c(C#N)c(-c3ccc(NC(=O)OCCS(C)(=O)=O)cc3)n(C3CCC3)c2c1 [Compound 3079] | 194 to 195 °C
CCn1c(-c2ccc(NC(=O)OCCCl)cc2)c(C#N)c2ccc(OCCOC)cc21 [Compound 1373] | 148 to 151 °C
CCCS(=O)(=O)Nc1ccc(-c2c(C#N)c3ccc(N4CCN(CC5CC5)CC4)cc3n2CC)cc1 [Compound 1411] | 173 to 174 °C
CCCNC(=O)Oc1ccc(-c2c(C#N)c3ccc(OC4CCOCC4)cc3n2C2CCC2)cc1 [Compound 2808] | 153 to 154 °C
CC(C)(C)OC(=O)Nc1ccc(-c2c(C#N)c3ccc(OCS(C)(=O)=O)cc3n2CC2CC2)cc1 [Compound 3025] | 214 to 220 °C
CCCNC(=O)Oc1ccc(-c2c(C#N)c3ccc(OC4CCOCC4)cc3n2CC2CC2)cc1 [Compound 2781] | 147 to 148 °C
CCC(C)C(C)OC(=O)Nc1ccc(-c2c(C#N)c3ccc(OC4CCOC4)cc3n2C2CCC2)cc1 (stereo not shown) [Compound 1459] | 183 to 184 °C
CC(C)OC(=O)Nc1ccc(-c2c(C#N)c3cc(OCCCn4cncn4)ccc3n2C2CCC2)cc1 [Compound 2605] | 204 to 205 °C
CC[S+]([O-])c1ccc2c(C#N)c(-c3ccc(NC(=O)OC(C)C)cc3)n(C3CCC3)c2c1 (stereo not shown) [Compound 2714] | 165 to 168 °C

The remaining lines, values ahead:

melting point | Structure (SMILES)
198 to 199 °C | C[C@H](NS(=O)(=O)Nc1ccc(-c2c(C#N)c3ccc(N4CCOCC4)cc3n2C2CCC2)cc1)C1CC1 [Compound 3314]
237 to 238 °C | N#Cc1c(-c2cnc(NC3CCC3)nc2)n(C2CCC2)c2cc(Oc3ncccn3)ccc12 [Compound 3329]
155 to 158 °C | CCN(CC)c1nc2ccc(-c3c(C#N)c4ccc(OC)cc4n3CC)cc2s1 [compound 1343, 2-(2-Diethylaminobenzothiazol-6-yl)-1-ethyl-6-methoxy-1H-indole-3-carbonitrile]
241 to 242 °C | CCCS(=O)(=O)Nc1ccc(-c2c(C#N)c3ccc(-c4ccnn4C)cc3n2C2CCC2)cc1 [Compound 3203]
265 to 266 °C | Cc1cccn(-c2ccc3c(C#N)c(-c4ccc(NC(=O)O[C@H](C)C(F)(F)F)cc4)n(C4CCC4)c3c2)c1=O [Compound 3341]
213 to 216 °C | C[C@@H](OC(=O)Nc1ccc(-c2c(C#N)c3ccc(OC(=O)NC4CCCCC4)cc3n2C2CCC2)cc1)C1CC1 [Compound 3172]
278 to 282 °C | CC(C)OC(=O)Nc1ccc(-c2c(C#N)c3ccc(OC4CCS(=O)(=O)CC4)cc3n2C2CC2)cc1 [Compound 3232]
212 to 213 °C | N#Cc1c(-c2ccc(Nc3ncccn3)cc2)n(CC2CC2)c2cc(OCCF)ccc12 [Compound 3251]
204 to 205 °C | CC(C)OC(=O)Nc1ccc(-c2c(C#N)c3cc(C(=O)N4CCCC4)ccc3n2C2CCC2)cc1 [Compound 3148]
213 to 215 °C | CC(C)Nc1ncc(-c2c(C#N)c3ccc(Oc4ncccn4)cc3n2C2CCC2)cn1 [Compound 3327]
203 to 208 °C | C[C@@H](OC(=O)Nc1ccc(-c2c(C#N)c3ccc(-c4cc(N(C)C)ccn4)cc3n2C2CCC2)cc1)C1CC1 [Compound 3259]
193 to 195 °C | Cc1csc(Nc2ccc(-c3c(C#N)c4ccc(Oc5ncccc5F)cc4n3C3CC3)cc2)n1 [Compound 3270]
206 to 208 °C | CC(C)Nc1ccc(-c2c(C#N)c3ccc(Oc4ncccn4)cc3n2C2CCC2)cn1 [Compound 3312]
253 to 257 °C | CCn1c(-c2ccc(NC(=O)OC(C)C)cc2)c(C#N)c2ccc(OC3CCS(=O)(=O)CC3)cc21 [Compound 3230]
178 to 180 °C | CCCS(=O)(=O)Nc1ccc(-c2c(C#N)c3ccc(Oc4nccnc4C#N)cc3n2CC2CC2)cc1 [Compound 3224]
159 to 161 °C | N#Cc1c(-c2ccc(NCC(F)F)cc2)n(C2CCC2)c2ccc(OCC(F)F)cc12 [Compound 3292]
178 to 179 °C | CCCS(=O)(=O)Nc1ccc(-c2c(C#N)c3ccc(OCCCN4C(=O)CN(C)C4=O)cc3n2C2CCC2)cc1 [Compound 3299]
259 to 264 °C | CCS(=O)(=O)Nc1ccc(-c2c(C#N)c3ccc(OC4CCS(=O)(=O)CC4)cc3n2C2CCC2)cc1 [Compound 3184]
209 to 211 °C | C[C@@H](OC(=O)Nc1ccc(-c2c(C#N)c3cc(Oc4nccnc4Cl)ccc3n2C2CCC2)cc1)C1CC1 [Compound 3255]
195 to 197 °C | CC(C)Nc1ccc(-c2c(C#N)c3ccc(Oc4ncccc4C#N)cc3n2C2CC2)cc1 [Compound 3213]
108 to 116 °C | Cc1cc(NC(=O)O[C@H](C)C2CC2)ccc1-c1c(C#N)c2ccc(Oc3nccnc3C#N)cc2n1C1CCC1 [Compound 3334]
210 to 212 °C | N#Cc1c(-c2ccc(Nc3cccnc3)cc2)n(C2CCC2)c2cc(OC3CCOCC3)ccc12 [Compound 3165]
245 to 249 °C | CC(C)OC(=O)Nc1ccc(-c2c(C#N)c3ccc(OC4CCS(=O)(=O)CC4)cc3n2C2CCC2)cc1 [compound 3182, {4-[3-cyano-1-cyclobutyl-6-(1,1-dioxo-hexahydro-1λ^6-thiopyran-4-yloxy)-1H-indol-2-yl]-phenyl}-carbamic acid isopropyl ester]
92 to 95 °C | CC(OC(=O)Nc1ccc(-c2c(C#N)c3ccc(OCCNS(C)(=O)=O)cc3n2C2CCC2)cc1)C1CC1 (stereo not shown) [Compound 3228]
